“And” between values parts separate entries of the source, which are not always exact repeats. Equal entries are not always repeated. Toxic doses and inconclusive results are not listed.
System: P388 leukemia ip, CD2F1 mice, survival T/C
Assay: NCI In Vivo Anticancer Drug Screen. Data for tumor model P388 Leukemia (intraperitoneal) in CD2F1 (CDF1) mice
Conditions: endpoint: median survival time, higher = longer survival
Summary of the method: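 Mice carrying the transplanted tumor received test compound or vehicle. Survival was recorded in each group, and the value is the treated-group measurement divided by that of the vehicle-treated control group.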

[1] = dose: 50.0 mg/kg/injection, schedule: Q01DX009 (ip), vehicle: saline with Tween-80
[2] = dose: 50.0 mg/kg/injection, schedule: Q04DX003 (ip), vehicle: saline with Tween-80
[3] = dose: 100.0 mg/kg/injection, schedule: Q04DX003 (ip), vehicle: saline with Tween-80
[4] = dose: 50.0 mg/kg/injection, schedule: Q01DX005 (ip), vehicle: Klucel (hydroxypropylcellulose) (HPC)
[5] = dose: 100.0 mg/kg/injection, schedule: Q01DX005 (ip), vehicle: Klucel (hydroxypropylcellulose) (HPC)
[6] = dose: 200.0 mg/kg/injection, schedule: Q01DX005 (ip), vehicle: Klucel (hydroxypropylcellulose) (HPC)
[7] = dose: 50.0 mg/kg/injection, schedule: Q01DX005 (ip), vehicle: saline with Tween-80
[8] = dose: 100.0 mg/kg/injection, schedule: Q01DX005 (ip), vehicle: saline with Tween-80
[9] = dose: 200.0 mg/kg/injection, schedule: Q01DX005 (ip), vehicle: saline with Tween-80

In the case of `S=P(NCCNP(=S)(N1CC1)N1CC1)(N1CC1)N1CC1`, the T/C (dose: 25.0 mg/kg/injection, schedule: Q04DX003 (ip), vehicle: saline with Tween-80) is reported as 122 % of control, the T/C (dose: 33.0 mg/kg/injection, schedule: Q04DX003 (ip), vehicle: saline with Tween-80) is reported as 165 % of control and the T/C [1] is reported as 95 % of control. The T/C [2] was 170 % of control and 177 % of control, the T/C (dose: 75.0 mg/kg/injection, schedule: Q04DX003 (ip), vehicle: saline with Tween-80) was 90 % of control and the T/C [3] was 86 % of control.
`CC(=O)c1cccc(OCC(O)CN2CCN(c3ccc(C)cc3)CC2)c1` (stereo not drawn) was tested, and the T/C (dose: 100.0 mg/kg/injection, schedule: Q04DX003 (ip), vehicle: Klucel (hydroxypropylcellulose) (HPC)) was 107 % of control and the T/C (dose: 400.0 mg/kg/injection, schedule: Q04DX003 (ip), vehicle: Klucel (hydroxypropylcellulose) (HPC)) was 91 % of control.
With `Cc1cc(O)c2c(c1)C(=O)c1c(c(O)cc(O)c1-c1c(O)cc(O)c3c1C(=O)c1cc(C)cc(O)c1C3=O)C2=O` the T/C (dose: 3.0 mg/kg/injection, schedule: Q01DX005 (ip), vehicle: Klucel (hydroxypropylcellulose) (HPC)) was 95 % of control, the T/C (dose: 6.0 mg/kg/injection, schedule: Q01DX005 (ip), vehicle: Klucel (hydroxypropylcellulose) (HPC)) was 99 % of control and the T/C (dose: 12.0 mg/kg/injection, schedule: Q01DX005 (ip), vehicle: Klucel (hydroxypropylcellulose) (HPC)) was 96 % of control. For the same compound, the T/C (dose: 12.5 mg/kg/injection, schedule: Q01DX005 (ip), vehicle: Klucel (hydroxypropylcellulose) (HPC)) was 91 % of control, the T/C (dose: 24.0 mg/kg/injection, schedule: Q01DX005 (ip), vehicle: Klucel (hydroxypropylcellulose) (HPC)) was 93 % of control and the T/C (dose: 25.0 mg/kg/injection, schedule: Q01DX005 (ip), vehicle: Klucel (hydroxypropylcellulose) (HPC)) was 93 % of control.
For `CSC(=O)/N=C(/NC(=O)c1ccccc1)SC`, the T/C [4] was 93 % of control, the T/C [5] was 91 % of control and the T/C [6] was 92 % of control.
`O=c1oc2c(cc1-c1ccccc1)CCc1ccccc1-2` was tested, and the T/C [4] was 102 % of control, the T/C [5] was 100 % of control and the T/C [6] was 102 % of control.
With `CN1C(=O)/C(=C2\Sc3ccccc3NC2=O)SC1=S` the T/C [2] was 92 % of control, the T/C [3] was 95 % of control and the T/C (dose: 200.0 mg/kg/injection, schedule: Q04DX003 (ip), vehicle: saline with Tween-80) was 102 % of control.
`COc1ccc2nc3cc(Cl)ccc3c(NCCNCCNCCNc3c4ccc(Cl)cc4nc4ccc(OC)cc34)c2c1` was tested, and the T/C [1] was 115 % of control.
With `O=C(Nc1ccccc1)P(=S)(c1ccccc1)c1ccccc1` the T/C [4] was 101 % of control and 112 % of control, the T/C [5] was 104 % of control and the T/C [6] was 101 % of control and 106 % of control.
With `CCC1(CC)OC(=O)C1Cl` (stereo not drawn) the T/C [7] was 98 % of control, the T/C [8] was 113 % of control and the T/C [9] was 118 % of control.
For `CCOc1cc2c(cc1C(C)c1ccccc1)OCO2` (stereo not drawn), the T/C [7] was 108 % of control, the T/C [8] was 101 % of control and the T/C [9] was 101 % of control.
`CCOc1ccccc1N=Nc1c(C)nc(N)nc1OCC` was tested, and the T/C (dose: 60.0 mg/kg/injection, schedule: Q01DX005 (ip), vehicle: Klucel (hydroxypropylcellulose) (HPC)) was 100 % of control, the T/C (dose: 120.0 mg/kg/injection, schedule: Q01DX005 (ip), vehicle: Klucel (hydroxypropylcellulose) (HPC)) was 110 % of control and the T/C (dose: 240.0 mg/kg/injection, schedule: Q01DX005 (ip), vehicle: Klucel (hydroxypropylcellulose) (HPC)) was 110 % of control.
In the case of `O=c1cc(-c2ccccc2)c(N=Nc2ccccc2)c(S)n1-c1ccccc1`, the T/C [7] is reported as 87 % of control, the T/C [8] is reported as 88 % of control and the T/C [9] is reported as 90 % of control.
In the case of `O=C1C2CC(Cl)C(SSC3CC4C(=O)N(SC(Cl)(Cl)C(Cl)Cl)C(=O)C4CC3Cl)CC2C(=O)N1SC(Cl)(Cl)C(Cl)Cl` (stereo not drawn), the T/C (dose: 6.25 mg/kg/injection, schedule: Q01DX005 (ip), vehicle: saline with Tween-80) is reported as 108 % of control and 110 % of control, the T/C (dose: 12.5 mg/kg/injection, schedule: Q01DX005 (ip), vehicle: saline with Tween-80) is reported as 101 % of control and 107 % of control and the T/C [7] is reported as 115 % of control.
In the case of `O=C1CC(C(=O)N2Cc3cc4ccccc4nc3C2)CO1` (stereo not drawn), the T/C (dose: 3.13 mg/kg/injection, schedule: Q01DX009 (ip), vehicle: saline with Tween-80) is reported as 100 % of control and 98 % of control, the T/C (dose: 6.25 mg/kg/injection, schedule: Q01DX009 (ip), vehicle: saline with Tween-80) is reported as 99 % of control and 100 % of control and 115 % of control and the T/C (dose: 12.5 mg/kg/injection, schedule: Q01DX009 (ip), vehicle: saline with Tween-80) is reported as 106 % of control and 124 % of control and 98 % of control. For the same compound, the T/C (dose: 25.0 mg/kg/injection, schedule: Q01DX009 (ip), vehicle: saline with Tween-80) was 100 % of control (2×) and 108 % of control and the T/C [1] was 100 % of control.
With `CCB1OCC(C2OC(=O)C3OB(CC)OC32)O1` (stereo not drawn) the T/C (dose: 50.0 mg/kg/injection, schedule: Q01DX005 (ip), vehicle: saline + Tween-80 + alcohol) was 101 % of control, the T/C (dose: 100.0 mg/kg/injection, schedule: Q01DX005 (ip), vehicle: saline + Tween-80 + alcohol) was 101 % of control and the T/C (dose: 200.0 mg/kg/injection, schedule: Q01DX005 (ip), vehicle: saline + Tween-80 + alcohol) was 95 % of control.
With `CC1C2C=CC1C=C2` (stereo not drawn) the T/C (dose: 50.0 mg/kg/injection, schedule: Q01DX009 (ip), vehicle: saline) was 98 % of control, the T/C (dose: 100.0 mg/kg/injection, schedule: Q01DX009 (ip), vehicle: saline) was 91 % of control and the T/C (dose: 200.0 mg/kg/injection, schedule: Q01DX009 (ip), vehicle: saline) was 98 % of control.
For `CCCCCCCCCCCCCCCC(=O)N(CCCN(C)C)C(C)(C)CCC(C)(C)N(CCCN(C)C)C(=O)CCCCCCCCCCCCCCC`, the T/C (dose: 25.0 mg/kg/injection, schedule: Q01DX009 (ip), vehicle: other) was 98 % of control and the T/C (dose: 50.0 mg/kg/injection, schedule: Q01DX009 (ip), vehicle: other) was 96 % of control.
In the case of `CC(C)NC(=O)C(C)O` (stereo not drawn), the T/C (dose: 50.0 mg/kg/injection, schedule: Q01DX005 (ip), vehicle: saline) is reported as 101 % of control, the T/C (dose: 100.0 mg/kg/injection, schedule: Q01DX005 (ip), vehicle: saline) is reported as 101 % of control and the T/C (dose: 200.0 mg/kg/injection, schedule: Q01DX005 (ip), vehicle: saline) is reported as 101 % of control.
For `C=Cn1c([N+](=O)[O-])cnc1/C=C/c1ccc(C(=O)OCCN2CCCC2)cc1`, the T/C (dose: 12.5 mg/kg/injection, schedule: Q01DX001 (ip), vehicle: DMSO) was 105 % of control, the T/C (dose: 25.0 mg/kg/injection, schedule: Q01DX001 (ip), vehicle: DMSO) was 98 % of control and the T/C (dose: 50.0 mg/kg/injection, schedule: Q01DX001 (ip), vehicle: DMSO) was 104 % of control. For the same compound, the T/C (dose: 100.0 mg/kg/injection, schedule: Q01DX001 (ip), vehicle: DMSO) was 100 % of control.
`CCCCC1(CN(C)C)C(=O)N(C)C(=O)N(C2CCCCC2)C1=O` (stereo not drawn) was tested, and the T/C [1] was 100 % of control, the T/C (dose: 100.0 mg/kg/injection, schedule: Q01DX009 (ip), vehicle: saline with Tween-80) was 102 % of control and the T/C (dose: 200.0 mg/kg/injection, schedule: Q01DX009 (ip), vehicle: saline with Tween-80) was 99 % of control.
In the case of `CC1(C)N=C(N)N=C(N)N1c1ccc(CCCCc2ccc(Cl)c(S(=O)(=O)F)c2)c(Cl)c1`, the T/C (dose: 2.0 mg/kg/injection, schedule: Q01DX009 (ip), vehicle: saline with Tween-80) is reported as 154 % of control, the T/C (dose: 8.0 mg/kg/injection, schedule: Q01DX009 (ip), vehicle: saline with Tween-80) is reported as 154 % of control and the T/C (dose: 8.0 mg/kg/injection, schedule: Q01DX009 (ip), vehicle: saline) is reported as 172 % of control and 175 % of control. For the same compound, the T/C (dose: 12.0 mg/kg/injection, schedule: Q01DX009 (ip), vehicle: saline) was 180 % of control and 181 % of control, the T/C (dose: 18.0 mg/kg/injection, schedule: Q01DX009 (ip), vehicle: saline) was 163 % of control and 172 % of control and 180 % of control and the T/C (dose: 27.0 mg/kg/injection, schedule: Q01DX009 (ip), vehicle: saline) was 154 % of control and 172 % of control.
For `COc1cc(COC(=O)Nc2ccccc2F)cc(OC)c1OC`, the T/C [7] was 93 % of control, the T/C [8] was 101 % of control and the T/C [9] was 92 % of control.
With `CC1=CC(=O)C(=Ic2ccccc2)C(=O)O1` the T/C [4] was 100 % of control, the T/C [5] was 98 % of control and the T/C [6] was 104 % of control.
With `CN(C)C(=O)Cn1cc([N+](=O)[O-])sc1=NC(=O)c1ccncc1` the T/C (dose: 100.0 mg/kg/injection, schedule: Q01DX001 (ip), vehicle: saline) was 93 % of control, the T/C (dose: 200.0 mg/kg/injection, schedule: Q01DX001 (ip), vehicle: saline) was 109 % of control and the T/C (dose: 400.0 mg/kg/injection, schedule: Q01DX001 (ip), vehicle: saline) was 105 % of control.
With `O=C1CCC2=C1C(c1ccccc1)C1=C(CCC1=O)O2` the T/C (dose: 100.0 mg/kg/injection, schedule: Q04DX002 (ip), vehicle: Klucel (hydroxypropylcellulose) (HPC)) was 100 % of control, the T/C (dose: 200.0 mg/kg/injection, schedule: Q04DX002 (ip), vehicle: Klucel (hydroxypropylcellulose) (HPC)) was 100 % of control and the T/C (dose: 400.0 mg/kg/injection, schedule: Q04DX002 (ip), vehicle: Klucel (hydroxypropylcellulose) (HPC)) was 111 % of control.
For `C=CC(O)C(C)C(=O)O` (stereo not drawn), the T/C (dose: 6.25 mg/kg/injection, schedule: Q01DX005 (ip), vehicle: saline) was 93 % of control, the T/C (dose: 12.5 mg/kg/injection, schedule: Q01DX005 (ip), vehicle: saline) was 95 % of control and the T/C (dose: 25.0 mg/kg/injection, schedule: Q01DX005 (ip), vehicle: saline) was 90 % of control. The T/C [8] was 98 % of control and the T/C [9] was 98 % of control.

— PubChem BioAssay AID330 (DTP/NCI, 2004)
